Test results: patent US12540148B2, “Lipophosphonoxins, their preparation and use” (USTAV ORGANICKE CHEMIE A BIOCHEMIE AV CR, V. V. I., priority 2019, dated 2026)
Values after ≈ are worked out from the molar mass of the structure shown. Structures can show the parent of a compound that is named as a salt. Where two headings read alike, the source gives them in different places.

Key:
Format in all cases: cell-based
erythrocytes = assay: Haemolytic activity of soluble samples
Experimental: Blood from three donors is mixed and centrifuged (10 min, 1000 g, 4° C.). The erythrocytes obtained are washed three times with NaCl solution (150 mmol·l^−1) and then used for experiments. Sample stock solutions are prepared in DMSO so that the final concentration of DMSO in NaCl is 0.5% (v/v). NaCl solution with the appropriate volume of DMSO serves as the negative control. 1% Triton-X100 is the positive control. The erythrocytes obtained are diluted to 2% with NaCl solution and pipetted into Eppendorf tubes (250 μl) with constant stirring. Samples and positive and negative controls are added to the erythrocytes prepared in this way and incubated (3 hours, 37° C.). The tubes are stirred during the incubation. After centrifugation (5 min, 1000 g), haemolytic activity is monitored by haemoglobin determination. The HC50 value is calculated from the measured absorbance values. The test is performed in triplets in three independent replicates. Iron Fe^2+ in haemoglobin is oxidized with potassium ferricyanide to iron Fe^3+ in methaemoglobin, which produces stable cyanomethaemoglobin with potassium cyanide, the concentration of which is determined spectrophotometrically. After the incubation of the erythrocytes with the substances, the cells are centrifuged (5 min, 1000 g), then Drabkin's solution (200 μl) is added to the supernatant (40 μl) and after incubation (10 min), the absorbance at 540 nm is measured.

Pseudomonas aeruginosa R = assay: MIC, microdilution method
Experimental: (§1) Disposable microtiter plates are used for testing. Samples are dissolved in infusion medium from brain and heart (BHI, HiMedia Laboraties Pvt. Ltd., Czech Republic) and Mueller-Hinton broth (HiMedia Laboraties, see above) to a final concentration ranging from 200 μg/ml to 1.5625 μg/ml. Plates are inoculated with a standard amount of test bacteria—the density of the inoculum in the well corresponds to 10^5-6 CFU/ml (colony forming units/ml, i.e. the number of viable bacterial cells/ml). MIC values are read after 24/48 hours of incubation at 37° C. as the minimum inhibitory concentration of the test substance at which bacterial growth is inhibited. The minimum bactericidal concentration (MBC) is characterized as the minimum concentration of the sample required to achieve irreversible inhibition, i.e. to kill the bacteria after a defined incubation period. MBC is determined by the inoculation method. Using an applicator, 10 μl from the well of a microtiter plate with a defined concentration of the test substance is taken to inoculate the surface of blood agar (Trios, Czech Republic). MBC is determined as the lowest concentration that inhibits the visible growth of the bacterium used on agar.

[1] = test system: Enterococcus faecium 419/ANA; assay: MIC, microdilution method
Experimental: as §1

[2] = test system: Staphylococcus aureus ATCC 29213 = CCM 4223; assay: MIC, microdilution method
Experimental: as §1

[3] = test system: Enterococcus faecalis ATCC 29212 = CCM 4224; assay: MIC, microdilution method
Experimental: as §1

[4] = test system: Staphylococcus aureus 4591; assay: MIC, microdilution method
Experimental: as §1

[5] = test system: Escherichia coli ATCC 25922 = CCM 3954; assay: MIC, microdilution method
Experimental: as §1

[6] = test system: Staphylococcus epidermidis CCM 7221; assay: MIC, microdilution method
Experimental: as §1

[7] = test system: Pseudomonas aeruginosa ATCC 27853 = CCM 3955; assay: MIC, microdilution method
Experimental: as §1

Escherichia coli CE5556 = assay: MIC, microdilution method
Experimental: as §1

[8] = test system: Candida albicans ATCC 90028 = CCM 8161; assay: MIC, microdilution method
Enterobacter kobei 3683 = assay: MIC, microdilution method
Experimental: as §1

[9] = Staphylococcus epidermidis, CCM7221
[10] = Pseudomonas aeruginosa, 24/48 hours at 37° C., read-out: MIC

## CCCC/C=C\CCOP(=O)(CCN(CCCN)CCCN)OCCCCCCOP(=O)(CCN(CCCN)CCCN)OCC/C=C\CCCC (stereo not drawn) [Example 57, Hexane-1,6-diyl di((Z)-oct-3-en-1-yl) bis((2-(bis(3-aminopropyl)amino)-ethyl)phosphonate) hexahydrochloride]
erythrocytes
  HC50 ± SD: 34.8
Pseudomonas aeruginosa R; Pseudomonas aeruginosa
  MIC: 16 µg/mL
[1]; Enterococcus faecium, 419/ANA
  MIC: 64 µg/mL
[2]; Staphylococcus aureus
  MIC: 1 µg/mL
[3]; Enterococcus faecalis
  MIC: 16 µg/mL
[4]; Staphylococcus aureus, 4591
  MIC: 1 µg/mL
[5]; Escherichia coli
  MIC: 2 µg/mL
[6]; [9]
  MIC: 0.5 µg/mL
[7]; Pseudomonas aeruginosa
  MIC: 16 µg/mL
Escherichia coli CE5556; Escherichia coli, CE5556
  MIC: 2 µg/mL
[8]; Candida albicans
  MIC: 64 µg/mL

## NCCCN(CCCN)CCP(=O)(OCCCCCCCCCCCCOP(=O)(CCN(CCCN)CCCN)OCCc1ccccc1)OCCc1ccccc1 (stereo not drawn) [Example 50]
erythrocytes
  HC50 ± SD: >100
Pseudomonas aeruginosa R; Pseudomonas aeruginosa
  MIC: 2 µg/mL (≈ 2.34 µM)
[1]; Enterococcus faecium, 419/ANA
  MIC: 2 µg/mL (≈ 2.34 µM)
[2]; Staphylococcus aureus
  MIC: 2 µg/mL (≈ 2.34 µM)
[3]; Enterococcus faecalis
  MIC: 4 µg/mL (≈ 4.69 µM)
[4]; Staphylococcus aureus, 4591
  MIC: 1 µg/mL (≈ 1.17 µM)
[5]; Escherichia coli
  MIC: 16 µg/mL (≈ 18.8 µM)
[6]; [9]
  MIC: 0.5 µg/mL (≈ 0.586 µM)
[7]; Pseudomonas aeruginosa
  MIC: 4 µg/mL (≈ 4.69 µM)
Escherichia coli CE5556; Escherichia coli, CE5556
  MIC: 2 µg/mL (≈ 2.34 µM)
Enterobacter kobei 3683; Enterobacter kobei, 3683
  MIC: 8 µg/mL (≈ 9.38 µM)
[8]; Candida albicans
  MIC: 4 µg/mL (≈ 4.69 µM)

## CCCCCOP(=O)(CCN(CCCN)CCCN)OCCCCCCCCCCCCOP(=O)(CCN(CCCN)CCCN)OCCCCC (stereo not drawn) [Example 48, Dodecane-1,12-diyl dipentyl bis((2-(bis(3-aminopropyl)amino)ethyl)-phosphonate) hexahydrochloride]
erythrocytes
  HC50 ± SD: 4
Pseudomonas aeruginosa R; Pseudomonas aeruginosa
  MIC: 2 µg/mL
[1]; Enterococcus faecium, 419/ANA
  MIC: 1 µg/mL
[2]; Staphylococcus aureus
  MIC: 1 µg/mL
[3]; Enterococcus faecalis
  MIC: 1 µg/mL
[4]; Staphylococcus aureus, 4591
  MIC: 1 µg/mL
[5]; Escherichia coli
  MIC: 1 µg/mL
[6]; [9]
  MIC: 0.5 µg/mL
[7]; Pseudomonas aeruginosa
  MIC: 2 µg/mL
Escherichia coli CE5556; Escherichia coli, CE5556
  MIC: 1 µg/mL
Enterobacter kobei 3683; Enterobacter kobei, 3683
  MIC: 1 µg/mL
[8]; Candida albicans
  MIC: 2 µg/mL

## CC(C)COP(=O)(CCN(CCCN)CCCN)OCCCCCCCCCCOP(=O)(CCN(CCCN)CCCN)OCC(C)C (stereo not drawn) [Example 40, Diisobutyl decane-1,10-diyl bis((2-(bis(3-aminopropyl)amino)ethyl)-phosphonate) hexahydrochloride]
erythrocytes
  HC50 ± SD: >100
Pseudomonas aeruginosa R; Pseudomonas aeruginosa
  MIC: > 128 µg/mL
[1]; Enterococcus faecium, 419/ANA
  MIC: > 128 µg/mL
[2]; Staphylococcus aureus
  MIC: 16 µg/mL
[3]; Enterococcus faecalis
  MIC: 128 µg/mL
[4]; Staphylococcus aureus, 4591
  MIC: 8 µg/mL
[5]; Escherichia coli
  MIC: > 128 µg/mL
[6]; [9]
  MIC: 4 µg/mL
[7]; Pseudomonas aeruginosa
  MIC: > 128 µg/mL
Escherichia coli CE5556; Escherichia coli, CE5556
  MIC: > 128 µg/mL
Enterobacter kobei 3683; Enterobacter kobei, 3683
  MIC: > 128 µg/mL
[8]; Candida albicans
  MIC: 128 µg/mL

## Dodecan-1,10-diyl dioctyl bis((2-(bis(3-aminopropyl)amino)ethyl)-phosphonate) tetrahydrochloride [Example 49]
erythrocytes
  HC50 ± SD: >100
Pseudomonas aeruginosa R; 24/48 hours at 37° C.
  MIC: 8 µg/mL
[1]
  MIC: 32 µg/mL
[3]
  MIC: 4 µg/mL
[4]
  MIC: 4 µg/mL
[6]
  MIC: 0.5 µg/mL
[7]
  MIC: 8 µg/mL
Escherichia coli CE5556
  MIC: 16 µg/mL
Enterobacter kobei 3683
  MIC: 128 µg/mL
[8]
  MIC: 8 µg/mL

## CC(C)COP(=O)(CCN(CCCN)CCCN)OCCCCCCCCCCCCOP(=O)(CCN(CCCN)CCCN)OCC(C)C (stereo not drawn) [Example 46, Dodecane-1,12-diyl diisobutyl bis((2-(bis(3-aminopropyl)amino)ethyl)-phosphonate) hexahydrochloride]
erythrocytes
  HC50 ± SD: >100
Pseudomonas aeruginosa R; Pseudomonas aeruginosa
  MIC: 16 µg/mL
[1]; Enterococcus faecium, 419/ANA
  MIC: > 128 µg/mL
[2]; Staphylococcus aureus
  MIC: 4 µg/mL
[3]; Enterococcus faecalis
  MIC: 32 µg/mL
[4]; Staphylococcus aureus, 4591
  MIC: 4 µg/mL
[5]; Escherichia coli
  MIC: 128 µg/mL
[6]; [9]
  MIC: 1 µg/mL
[7]; Pseudomonas aeruginosa
  MIC: 32 µg/mL
Escherichia coli CE5556; Escherichia coli, CE5556
  MIC: > 128 µg/mL
Enterobacter kobei 3683; Enterobacter kobei, 3683
  MIC: > 128 µg/mL
[8]; Candida albicans
  MIC: 64 µg/mL

## CCCCCCOP(=O)(CCN(CCN)CCN)OCCCCCCCCOP(=O)(CCN(CCN)CCN)OCCCCCC (stereo not drawn) [Example 55, Dihexyl octane-1,8-diyl bis((2-(bis(2-aminoethyl)amino)ethyl)phosphonate) hexahydrochloride]
erythrocytes
  HC50 ± SD: >100
Pseudomonas aeruginosa R; Pseudomonas aeruginosa
  MIC: 64 µg/mL
[1]; Enterococcus faecium, 419/ANA
  MIC: > 128 µg/mL
[2]; Staphylococcus aureus
  MIC: 2 µg/mL
[3]; Enterococcus faecalis
  MIC: 128 µg/mL
[4]; Staphylococcus aureus, 4591
  MIC: 4 µg/mL
[5]; Escherichia coli
  MIC: > 128 µg/mL
[6]; [9]
  MIC: 2 µg/mL
[7]; Pseudomonas aeruginosa
  MIC: 64 µg/mL
Escherichia coli CE5556; Escherichia coli, CE5556
  MIC: > 128 µg/mL
Enterobacter kobei 3683; Enterobacter kobei, 3683
  MIC: > 128 µg/mL
[8]; Candida albicans
  MIC: 32 µg/mL

## CCCC/C=C\CCOP(=O)(CCN(CCCN)CCCN)OCCCCCOP(=O)(CCN(CCCN)CCCN)OCC/C=C\CCCC (stereo not drawn) [Example 58, Di((Z)-oct-3-en-1-yl) pentane-1,5-diyl bis((2-(bis(3-aminopropyl)amino)ethyl)-phosphonate) hexahydrochloride]
erythrocytes
  HC50 ± SD: 70
Pseudomonas aeruginosa R; Pseudomonas aeruginosa
  MIC: 32 µg/mL
[1]; Enterococcus faecium, 419/ANA
  MIC: 4 µg/mL
[2]; Staphylococcus aureus
  MIC: 0.5 µg/mL
[3]; Enterococcus faecalis
  MIC: 2 µg/mL
[4]; Staphylococcus aureus, 4591
  MIC: 128 µg/mL
[5]; Escherichia coli
  MIC: 8 µg/mL
[6]; [9]
  MIC: 2 µg/mL
[7]; Pseudomonas aeruginosa
  MIC: 32 µg/mL
Escherichia coli CE5556; Escherichia coli, CE5556
  MIC: 4 µg/mL
[8]; Candida albicans
  MIC: 64 µg/mL

## C=CP(=O)(OCCCCCCCCCCOP(=O)(C=C)OCC(C)C)OCC(C)C (stereo not drawn) [Example 39, Decane-1,10-diyl diisobutyl bis(vinylphosphonate)]
Pseudomonas aeruginosa R; [10]
  MIC: 64 µg/mL (≈ 137 µM)
[1]; Enterococcus faecium, 419/ANA, 24/48 hours at 37° C., read-out: MIC
  MIC: 128 µg/mL (≈ 274 µM)
[2]; Staphylococcus aureus, 24/48 hours at 37° C., read-out: MIC
  MIC: 32 µg/mL (≈ 68.6 µM)
[3]; Enterococcus faecalis, 24/48 hours at 37° C., read-out: MIC
  MIC: 64 µg/mL (≈ 137 µM)
[4]; Staphylococcus aureus, 4591, 24/48 hours at 37° C., read-out: MIC
  MIC: 16 µg/mL (≈ 34.3 µM)
[5]; Escherichia coli, 24/48 hours at 37° C., read-out: MIC
  MIC: 128 µg/mL (≈ 274 µM)
[6]; Staphylococcus epidermidis, CCM7221, 24/48 hours at 37° C., read-out: MIC
  MIC: 8 µg/mL (≈ 17.1 µM)
[7]; [10]
  MIC: 128 µg/mL (≈ 274 µM)
Escherichia coli CE5556; Escherichia coli, CE5556, 24/48 hours at 37° C., read-out: MIC
  MIC: 128 µg/mL (≈ 274 µM)
Enterobacter kobei 3683; Enterobacter kobei, 3683, 24/48 hours at 37° C., read-out: MIC
  MIC: > 128 µg/mL
[8]; Candida albicans, 24/48 hours at 37° C., read-out: MIC
  MIC: > 128 µg/mL

## Hexan-1,8-diyl dioctyl bis((2-(bis(3-aminopropyl)amino)ethyl)phosphonate) hexahydrochloride [Example 36]
Pseudomonas aeruginosa R; 24/48 hours at 37° C.
  MIC: 128 µg/mL
[1]; 24/48 hours at 37° C.
  MIC: >128 µg/mL
[2]; 24/48 hours at 37° C.
  MIC: 16 µg/mL
[3]; 24/48 hours at 37° C.
  MIC: >128 µg/mL
[4]; 24/48 hours at 37° C.
  MIC: 8 µg/mL
[5]; 24/48 hours at 37° C.
  MIC: 128 µg/mL
[6]; 24/48 hours at 37° C.
  MIC: 4 µg/mL
[7]; 24/48 hours at 37° C.
  MIC: >128 µg/mL
Escherichia coli CE5556; 24/48 hours at 37° C.
  MIC: >128 µg/mL
Enterobacter kobei 3683; 24/48 hours at 37° C.
  MIC: >128 µg/mL
[8]; 24/48 hours at 37° C.
  MIC: 128 µg/mL
